Reference: PubChem BioAssay AID434933 (The Scripps Research Institute Molecular Screening Center, 2010)
Where “and” joins values, the source holds several entries; their conditions need not be identical. Equal values may be shown once. Calls of active or inactive are those of the source.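 The calls were made as follows: active = compound with HepG2 cell viability IC50 of 10 micromolar or lower; inactive = IC50 above 10 micromolar.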

System: HepG2 viability, CellTiter-Glo ATP luminescence
Assay: HepG2 viability loss – cell-based, luminescence, dose response, cytotoxicity control for TPT1 inhibitor project, late-stage follow-up (AID 434933)

SMILES	IC50
Cc1cc(C)n(Cc2ccc(C(=O)NN=Cc3ccc(-c4ccc([N+](=O)[O-])cc4)o3)o2)n1	72.7 µM (inactive)
NC(=O)c1cc[n+](CC2=C(C(=O)O)N3C(=O)[C@@H](NC(=O)C(c4ccccc4)S(=O)(=O)O)[C@H]3SC2)cc1 (stereo not given in full)	> 79.4 µM (inactive)
NS(=O)(=O)c1cc(C(=O)NC2CCSc3ccccc32)ccc1Cl (stereo not given)	> 79.4 µM (inactive)
OC(Cn1cncn1)(Cn1cncn1)c1ccc(F)cc1F	> 79.4 µM (inactive)
Cc1ccc(N2C(=O)NC(=O)/C(=C\c3ccc([N+](=O)[O-])o3)C2=O)cc1	53.5 µM (inactive)
CC1=C(C#N)C(=O)N(C2CCS(=O)(=O)C2)C(=O)/C1=C\c1ccco1 (stereo not given)	> 79.4 µM (inactive)
Cc1ccccc1N1C(=O)/C(=C/c2ccco2)C(=O)NC1=S	> 79.4 µM (inactive) and 36.6 µM (inactive)
O=c1oc2c(O)c(O)cc3c(=O)oc4c(O)c(O)cc1c4c23	> 79.4 µM (inactive)
COc1ccc(OC)c(N2C(=O)/C(=C/c3ccco3)C(=O)NC2=S)c1	> 79.4 µM (inactive)
Cc1[nH]n(-c2ccc(S(=O)(=O)O)cc2)c(=O)c1N[N-]c1ccc(C2=CC(=O)/C(=N\[N-]c3ccc4c(S(=O)(=O)O)cc(S(=O)(=O)O)c(N)c4c3O)C=C2)cc1O.[Cu+].[Cu+]	53.6 µM (inactive)
